Results from article PMC5078040 (Oncotarget, 2016).

Experiments:
[1] = target: PI3Kδ (Homo sapiens, UniProt O00329); experiment: ADP-glo biochemical assay; conditions: purified enzyme, read-out: biochemical IC50 PI3K Delta
Protocol: The reaction in each tube was started immediately by adding ATP and kept going for an hour under 37°C. After the tube cooled for 5 minutes at room temperature, 5 μL solvent reactions were carried out in a 384-well plate. Then 5 μL of ADP-Glo™ reagent was added into each well to stop the reaction and consume the remaining ADP within 40 minutes. At the end, 10 μL of kinase detection reagent was added into the well and incubated for 30 minutes to produce a luminescence signal. Luminescence signal was measured with an automated plate reader (Perkin-Elmer Envision) and each measurement was performed in triplicate.

[2] = target: T1, ABL1(H396P)-phosphorylated (Homo sapiens, UniProt P00519, H396P); experiment: KinomeScan; format: binding; conditions: 1uM
T1 construct: purchased DiscoveRx KINOMEscan

[3] = target: T2, ABL1(Y253F)-phosphorylated (Homo sapiens, UniProt P00519, Y253F); experiment: KinomeScan; format: binding; conditions: 1uM
T2 construct: purchased DiscoveRx KINOMEscan

[4] = target: T3, ACVRL1 (Homo sapiens, UniProt P37023); experiment: KinomeScan; format: binding; conditions: 1uM
T3 construct: purchased DiscoveRx KINOMEscan

[5] = target: T4, ADCK3 (Homo sapiens, UniProt Q8NI60); experiment: KinomeScan; format: binding; conditions: 1uM
T4 construct: purchased DiscoveRx KINOMEscan

[6] = target: T5, AKT3 (Homo sapiens, UniProt Q9Y243); experiment: KinomeScan; format: binding; conditions: 1uM
T5 construct: purchased DiscoveRx KINOMEscan

[7] = target: T6, AMPK-alpha1 (Homo sapiens, UniProt Q13131); experiment: KinomeScan; format: binding; conditions: 1uM
T6 construct: purchased DiscoveRx KINOMEscan
T6 sequence (Q13131 whole entry): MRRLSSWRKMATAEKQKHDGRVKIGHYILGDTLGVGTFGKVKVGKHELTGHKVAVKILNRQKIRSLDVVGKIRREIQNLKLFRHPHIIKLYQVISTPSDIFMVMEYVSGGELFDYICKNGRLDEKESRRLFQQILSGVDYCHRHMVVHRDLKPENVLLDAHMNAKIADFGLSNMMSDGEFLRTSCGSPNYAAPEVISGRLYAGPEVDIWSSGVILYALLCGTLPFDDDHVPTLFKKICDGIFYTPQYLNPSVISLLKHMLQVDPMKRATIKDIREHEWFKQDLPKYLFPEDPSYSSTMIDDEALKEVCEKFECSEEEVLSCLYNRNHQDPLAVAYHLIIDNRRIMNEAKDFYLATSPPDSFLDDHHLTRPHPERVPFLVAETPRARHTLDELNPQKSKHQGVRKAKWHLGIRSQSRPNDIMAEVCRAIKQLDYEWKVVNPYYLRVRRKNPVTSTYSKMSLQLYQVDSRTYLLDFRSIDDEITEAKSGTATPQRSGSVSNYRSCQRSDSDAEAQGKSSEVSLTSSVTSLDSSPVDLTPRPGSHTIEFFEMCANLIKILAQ

[8] = target: T7, ANKK1 (Homo sapiens, UniProt Q8NFD2); experiment: KinomeScan; format: binding; conditions: 1uM
T7 construct: purchased DiscoveRx KINOMEscan

[9] = target: T8, ARK5 (Homo sapiens, UniProt O60285); experiment: KinomeScan; format: binding; conditions: 1uM
T8 construct: purchased DiscoveRx KINOMEscan
T8 sequence (O60285 whole entry): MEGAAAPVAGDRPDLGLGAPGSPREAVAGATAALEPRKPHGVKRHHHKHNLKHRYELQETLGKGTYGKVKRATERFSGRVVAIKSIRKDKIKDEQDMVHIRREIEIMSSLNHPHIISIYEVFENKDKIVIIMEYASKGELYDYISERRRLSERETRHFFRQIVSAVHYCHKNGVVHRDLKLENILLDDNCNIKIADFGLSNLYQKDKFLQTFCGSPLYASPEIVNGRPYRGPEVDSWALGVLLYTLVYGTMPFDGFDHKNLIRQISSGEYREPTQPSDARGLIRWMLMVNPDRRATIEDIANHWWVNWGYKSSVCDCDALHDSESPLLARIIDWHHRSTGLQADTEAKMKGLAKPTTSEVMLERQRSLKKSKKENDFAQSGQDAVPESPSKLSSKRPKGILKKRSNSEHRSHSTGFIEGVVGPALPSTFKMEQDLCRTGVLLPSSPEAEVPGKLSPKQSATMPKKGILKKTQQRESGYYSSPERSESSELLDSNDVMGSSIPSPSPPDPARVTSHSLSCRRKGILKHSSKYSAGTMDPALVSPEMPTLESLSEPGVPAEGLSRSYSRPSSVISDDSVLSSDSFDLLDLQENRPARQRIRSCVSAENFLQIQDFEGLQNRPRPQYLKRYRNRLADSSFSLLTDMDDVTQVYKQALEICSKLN

[10] = target: T9, BLK (Homo sapiens, UniProt P51451); experiment: KinomeScan; format: binding; conditions: 1uM
T9 construct: purchased DiscoveRx KINOMEscan

[11] = target: T10, BRSK1 (Homo sapiens, UniProt Q8TDC3); experiment: KinomeScan; format: binding; conditions: 1uM
T10 construct: purchased DiscoveRx KINOMEscan
T10 sequence (Q8TDC3 whole entry): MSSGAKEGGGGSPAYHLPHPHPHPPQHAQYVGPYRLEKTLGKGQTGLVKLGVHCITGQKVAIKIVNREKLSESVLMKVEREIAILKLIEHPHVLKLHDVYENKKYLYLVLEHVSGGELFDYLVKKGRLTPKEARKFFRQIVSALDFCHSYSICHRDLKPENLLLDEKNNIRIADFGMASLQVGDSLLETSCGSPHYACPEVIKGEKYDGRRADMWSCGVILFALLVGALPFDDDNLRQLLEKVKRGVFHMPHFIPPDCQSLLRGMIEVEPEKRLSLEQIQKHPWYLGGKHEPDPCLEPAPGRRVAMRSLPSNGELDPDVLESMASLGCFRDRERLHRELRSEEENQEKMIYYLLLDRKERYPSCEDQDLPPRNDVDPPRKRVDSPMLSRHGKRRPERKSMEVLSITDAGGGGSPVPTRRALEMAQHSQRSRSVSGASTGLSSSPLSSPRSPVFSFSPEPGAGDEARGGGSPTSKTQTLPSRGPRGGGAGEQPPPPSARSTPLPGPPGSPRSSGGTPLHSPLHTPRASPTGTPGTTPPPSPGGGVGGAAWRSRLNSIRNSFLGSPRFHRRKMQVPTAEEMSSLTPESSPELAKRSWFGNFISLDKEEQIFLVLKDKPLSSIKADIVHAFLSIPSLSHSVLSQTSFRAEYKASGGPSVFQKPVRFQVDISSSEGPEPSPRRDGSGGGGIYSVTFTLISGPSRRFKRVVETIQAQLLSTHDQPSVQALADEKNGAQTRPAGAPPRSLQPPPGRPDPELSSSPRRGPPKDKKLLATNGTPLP

[12] = target: T11, CDK2 (Homo sapiens, UniProt P24941); experiment: KinomeScan; format: binding; conditions: 1uM
T11 construct: purchased DiscoveRx KINOMEscan

[13] = target: T12, CIT (Homo sapiens, UniProt O14578); experiment: KinomeScan; format: binding; conditions: 1uM
T12 construct: purchased DiscoveRx KINOMEscan

[14] = target: T13, CLK1 (Homo sapiens, UniProt P49759); experiment: KinomeScan; format: binding; conditions: 1uM
T13 construct: purchased DiscoveRx KINOMEscan

[15] = target: T14, ERBB2 (Homo sapiens, UniProt P04626); experiment: KinomeScan; format: binding; conditions: 1uM
T14 construct: purchased DiscoveRx KINOMEscan

[16] = target: T15, FGR (Homo sapiens, UniProt P09769); experiment: KinomeScan; format: binding; conditions: 1uM
T15 construct: purchased DiscoveRx KINOMEscan
T15 sequence (P09769 whole entry): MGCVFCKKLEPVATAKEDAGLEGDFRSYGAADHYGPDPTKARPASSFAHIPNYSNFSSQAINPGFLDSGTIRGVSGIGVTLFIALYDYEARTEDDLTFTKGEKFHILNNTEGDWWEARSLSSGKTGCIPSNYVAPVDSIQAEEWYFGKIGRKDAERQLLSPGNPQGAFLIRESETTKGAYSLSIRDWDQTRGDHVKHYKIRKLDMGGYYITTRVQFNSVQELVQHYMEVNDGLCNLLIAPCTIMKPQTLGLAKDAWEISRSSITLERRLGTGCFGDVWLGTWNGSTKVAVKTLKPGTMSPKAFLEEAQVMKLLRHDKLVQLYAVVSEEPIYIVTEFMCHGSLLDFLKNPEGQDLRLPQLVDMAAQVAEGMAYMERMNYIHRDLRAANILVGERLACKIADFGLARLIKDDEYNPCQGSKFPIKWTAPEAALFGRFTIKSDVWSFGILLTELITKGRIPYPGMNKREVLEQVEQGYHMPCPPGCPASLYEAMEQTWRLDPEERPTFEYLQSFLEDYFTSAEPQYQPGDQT

[17] = test system: FLT3(ITD); experiment: KinomeScan; format: binding; conditions: 1uM
[18] = target: T16, FLT4 (Homo sapiens, UniProt P35916); experiment: KinomeScan; format: binding; conditions: 1uM
T16 construct: purchased DiscoveRx KINOMEscan

[19] = target: T17, JAK2(JH1domain-catalytic) (Homo sapiens, UniProt O60674); experiment: KinomeScan; format: binding; conditions: 1uM
T17 construct: JAK2(JH1domain-catalytic); purchased DiscoveRx KINOMEscan

[20] = target: T18, KIT(A829P) (Homo sapiens, UniProt P10721, A829P); experiment: KinomeScan; format: binding; conditions: 1uM
T18 construct: purchased DiscoveRx KINOMEscan

[21] = target: T19, MET(M1250T) (Homo sapiens, UniProt P08581, M1250T); experiment: KinomeScan; format: binding; conditions: 1uM
T19 construct: purchased DiscoveRx KINOMEscan

[22] = target: T20, MKNK1 (Homo sapiens, UniProt Q9BUB5); experiment: KinomeScan; format: binding; conditions: 1uM
T20 construct: purchased DiscoveRx KINOMEscan

[23] = target: T21, MLK2 (Homo sapiens, UniProt Q02779); experiment: KinomeScan; format: binding; conditions: 1uM
T21 construct: purchased DiscoveRx KINOMEscan

[24] = target: T22, NEK6 (Homo sapiens, UniProt Q9HC98); experiment: KinomeScan; format: binding; conditions: 1uM
T22 construct: purchased DiscoveRx KINOMEscan

[25] = target: T23, NEK7 (Homo sapiens, UniProt Q8TDX7); experiment: KinomeScan; format: binding; conditions: 1uM
T23 construct: purchased DiscoveRx KINOMEscan
T23 sequence (Q8TDX7 whole entry): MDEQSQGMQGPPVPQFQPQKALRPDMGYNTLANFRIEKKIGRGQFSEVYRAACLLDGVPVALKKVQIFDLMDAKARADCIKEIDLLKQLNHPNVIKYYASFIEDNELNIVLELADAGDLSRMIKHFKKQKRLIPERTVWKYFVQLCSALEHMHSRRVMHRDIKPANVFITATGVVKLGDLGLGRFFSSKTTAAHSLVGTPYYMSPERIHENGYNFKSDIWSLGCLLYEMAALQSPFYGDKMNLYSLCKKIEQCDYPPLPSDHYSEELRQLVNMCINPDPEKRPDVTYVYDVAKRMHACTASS

[26] = target: T24, NIK (Homo sapiens, UniProt Q99558); experiment: KinomeScan; format: binding; conditions: 1uM
T24 construct: purchased DiscoveRx KINOMEscan

[27] = target: T25, NLK (Homo sapiens, UniProt Q9UBE8); experiment: KinomeScan; format: binding; conditions: 1uM
T25 construct: purchased DiscoveRx KINOMEscan

[28] = target: T26, p38-beta (Homo sapiens, UniProt Q15759); experiment: KinomeScan; format: binding; conditions: 1uM
T26 construct: purchased DiscoveRx KINOMEscan
T26 sequence (Q15759 whole entry): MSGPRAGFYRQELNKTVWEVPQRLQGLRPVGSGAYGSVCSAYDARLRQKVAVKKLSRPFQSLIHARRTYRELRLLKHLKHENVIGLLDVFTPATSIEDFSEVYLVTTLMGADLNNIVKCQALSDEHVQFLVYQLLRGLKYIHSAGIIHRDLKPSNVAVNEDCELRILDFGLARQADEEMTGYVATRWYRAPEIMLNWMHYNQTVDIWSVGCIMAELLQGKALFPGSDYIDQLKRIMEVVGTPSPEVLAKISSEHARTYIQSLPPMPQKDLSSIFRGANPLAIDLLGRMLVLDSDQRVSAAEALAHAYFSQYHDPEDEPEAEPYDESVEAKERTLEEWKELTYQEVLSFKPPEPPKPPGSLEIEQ

[29] = target: T27, PAK2 (Homo sapiens, UniProt Q13177); experiment: KinomeScan; format: binding; conditions: 1uM
T27 construct: purchased DiscoveRx KINOMEscan

[30] = target: T28, PFCDPK1(P.falciparum) (Plasmodium falciparum, UniProt P62344); experiment: KinomeScan; format: binding; conditions: 1uM
T28 construct: purchased DiscoveRx KINOMEscan
T28 sequence (P62344 whole entry): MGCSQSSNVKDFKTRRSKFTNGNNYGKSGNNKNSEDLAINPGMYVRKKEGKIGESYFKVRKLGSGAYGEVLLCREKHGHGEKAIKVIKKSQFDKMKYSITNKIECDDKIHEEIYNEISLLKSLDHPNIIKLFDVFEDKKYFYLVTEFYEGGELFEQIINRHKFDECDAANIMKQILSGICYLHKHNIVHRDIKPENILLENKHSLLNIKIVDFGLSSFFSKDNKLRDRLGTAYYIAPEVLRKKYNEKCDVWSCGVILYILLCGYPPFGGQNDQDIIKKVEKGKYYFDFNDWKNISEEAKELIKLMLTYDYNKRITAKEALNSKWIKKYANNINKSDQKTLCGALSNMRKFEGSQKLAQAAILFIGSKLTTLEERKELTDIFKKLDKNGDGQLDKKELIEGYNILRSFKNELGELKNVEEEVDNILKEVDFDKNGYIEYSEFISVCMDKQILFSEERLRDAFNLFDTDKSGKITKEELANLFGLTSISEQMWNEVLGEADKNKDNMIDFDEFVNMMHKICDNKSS

[31] = target: T29, PFPK5(P.falciparum) (Plasmodium falciparum, UniProt P61075); experiment: KinomeScan; format: binding; conditions: 1uM
T29 construct: purchased DiscoveRx KINOMEscan

[32] = target: T30, PIK3CA(E545K) (Homo sapiens, UniProt P42336, E545K); experiment: KinomeScan; format: binding; conditions: 1uM
T30 construct: purchased DiscoveRx KINOMEscan

[33] = target: T31, PIK3CD (Homo sapiens, UniProt O00329); experiment: KinomeScan; format: binding; conditions: 1uM
T31 construct: purchased DiscoveRx KINOMEscan

[34] = target: T32, PKN2 (Homo sapiens, UniProt Q16513); experiment: KinomeScan; format: binding; conditions: 1uM
T32 construct: purchased DiscoveRx KINOMEscan

[35] = target: T33, PLK4 (Homo sapiens, UniProt O00444); experiment: KinomeScan; format: binding; conditions: 1uM
T33 construct: purchased DiscoveRx KINOMEscan

[36] = target: T34, RAF1 (Homo sapiens, UniProt P04049); experiment: KinomeScan; format: binding; conditions: 1uM
T34 construct: purchased DiscoveRx KINOMEscan

[37] = target: T35, RIPK1 (Homo sapiens, UniProt Q13546); experiment: KinomeScan; format: binding; conditions: 1uM
T35 construct: purchased DiscoveRx KINOMEscan

[38] = target: T36, RIPK5 (Homo sapiens, UniProt Q6XUX3); experiment: KinomeScan; format: binding; conditions: 1uM
T36 construct: purchased DiscoveRx KINOMEscan
T36 sequence (Q6XUX3 whole entry): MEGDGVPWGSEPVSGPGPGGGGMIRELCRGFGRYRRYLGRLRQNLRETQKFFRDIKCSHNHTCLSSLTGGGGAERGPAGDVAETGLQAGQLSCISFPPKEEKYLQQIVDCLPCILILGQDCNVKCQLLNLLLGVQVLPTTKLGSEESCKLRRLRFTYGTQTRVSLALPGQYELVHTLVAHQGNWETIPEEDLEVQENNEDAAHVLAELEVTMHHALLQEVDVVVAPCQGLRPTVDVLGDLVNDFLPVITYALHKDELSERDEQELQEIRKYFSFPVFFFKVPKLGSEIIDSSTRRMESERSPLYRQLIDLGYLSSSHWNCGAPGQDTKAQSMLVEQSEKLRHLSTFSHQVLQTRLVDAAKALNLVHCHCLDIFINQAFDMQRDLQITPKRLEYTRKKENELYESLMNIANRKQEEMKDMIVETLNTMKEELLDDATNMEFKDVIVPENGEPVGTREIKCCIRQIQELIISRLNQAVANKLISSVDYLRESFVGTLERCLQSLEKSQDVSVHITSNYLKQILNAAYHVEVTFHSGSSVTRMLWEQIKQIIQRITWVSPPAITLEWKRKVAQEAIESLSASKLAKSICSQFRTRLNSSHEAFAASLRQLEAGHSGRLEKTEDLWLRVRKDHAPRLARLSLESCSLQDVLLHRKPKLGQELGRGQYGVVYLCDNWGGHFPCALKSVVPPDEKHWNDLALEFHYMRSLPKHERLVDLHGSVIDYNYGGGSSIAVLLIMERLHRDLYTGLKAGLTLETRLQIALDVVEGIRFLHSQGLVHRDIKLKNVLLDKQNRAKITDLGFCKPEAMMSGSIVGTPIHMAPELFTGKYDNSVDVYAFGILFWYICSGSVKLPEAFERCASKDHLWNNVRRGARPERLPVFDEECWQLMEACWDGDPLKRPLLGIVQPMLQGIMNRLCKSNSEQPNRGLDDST

[39] = target: T37, SRMS (Homo sapiens, UniProt Q9H3Y6); experiment: KinomeScan; format: binding; conditions: 1uM
T37 construct: purchased DiscoveRx KINOMEscan

[40] = target: T38, STK16 (Homo sapiens, UniProt O75716); experiment: KinomeScan; format: binding; conditions: 1uM
T38 construct: purchased DiscoveRx KINOMEscan
T38 sequence (O75716 whole entry): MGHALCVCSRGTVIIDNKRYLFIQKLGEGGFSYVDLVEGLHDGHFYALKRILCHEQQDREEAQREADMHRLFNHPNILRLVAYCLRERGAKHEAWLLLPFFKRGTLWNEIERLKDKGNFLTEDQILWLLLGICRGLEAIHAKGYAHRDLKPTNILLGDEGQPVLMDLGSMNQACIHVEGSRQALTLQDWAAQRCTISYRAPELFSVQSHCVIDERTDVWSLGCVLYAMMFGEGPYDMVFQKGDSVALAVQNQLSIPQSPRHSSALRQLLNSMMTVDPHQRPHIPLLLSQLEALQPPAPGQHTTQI

[41] = target: T39, TBK1 (Homo sapiens, UniProt Q9UHD2); experiment: KinomeScan; format: binding; conditions: 1uM
T39 construct: purchased DiscoveRx KINOMEscan

[42] = target: T40, TGFBR1 (Homo sapiens, UniProt P36897); experiment: KinomeScan; format: binding; conditions: 1uM
T40 construct: purchased DiscoveRx KINOMEscan

[43] = target: T41, TGFBR2 (Homo sapiens, UniProt P37173); experiment: KinomeScan; format: binding; conditions: 1uM
T41 construct: purchased DiscoveRx KINOMEscan

Compound: Cc1nc(NC(=O)[C@@H](N)C(C)C)sc1-c1cnc(Cl)c(NS(=O)(=O)c2ccccc2)c1 [PI3KD-IN-015]
- IC50 [1]: 5 nM
- KinomeScan ABL1(H396P)-phosphorylated [2]: 78
- KinomeScan ABL1(Y253F)-phosphorylated [3]: 100
- KinomeScan ACVRL1 [4]: 100
- KinomeScan ADCK3 [5]: 100
- KinomeScan AKT3 [6]: 89
- KinomeScan AMPK-alpha1 [7]: 100
- KinomeScan ANKK1 [8]: 100
- KinomeScan ARK5 [9]: 87
- KinomeScan BLK [10]: 97
- KinomeScan BRSK1 [11]: 100
- KinomeScan CDK2 [12]: 88
- KinomeScan CIT [13]: 100
- KinomeScan CLK1 [14]: 100
- KinomeScan ERBB2 [15]: 100
- KinomeScan FGR [16]: 100
- KinomeScan FLT3(ITD) [17]: 100
- KinomeScan FLT4 [18]: 93
- KinomeScan JAK2(JH1domain-catalytic) [19]: 96
- KinomeScan KIT(A829P) [20]: 96
- KinomeScan MET(M1250T) [21]: 74
- KinomeScan MKNK1 [22]: 100
- KinomeScan MLK2 [23]: 89
- KinomeScan NEK6 [24]: 100
- KinomeScan NEK7 [25]: 100
- KinomeScan NIK [26]: 83
- KinomeScan NLK [27]: 92
- KinomeScan p38-beta [28]: 86
- KinomeScan PAK2 [29]: 89
- KinomeScan PFCDPK1(P.falciparum) [30]: 100
- KinomeScan PFPK5(P.falciparum) [31]: 100
- KinomeScan PIK3CA(E545K) [32]: 6.4
- KinomeScan PIK3CD [33]: 0
- KinomeScan PKN2 [34]: 100
- KinomeScan PLK4 [35]: 99
- KinomeScan RAF1 [36]: 100
- KinomeScan RIPK1 [37]: 100
- KinomeScan RIPK5 [38]: 83
- KinomeScan SRMS [39]: 90
- KinomeScan STK16 [40]: 91
- KinomeScan TBK1 [41]: 100
- KinomeScan TGFBR1 [42]: 97
- KinomeScan TGFBR2 [43]: 100
